{"source": "patent US10214561B2", "about": "“Peptide having activity of inhibiting production of toxin by bacterium belonging to genus clostridium” (MIYARISAN PHARMACEUTICAL CO., LTD., priority 2014, dated 2019)", "note": "pIC50: −log10 of the molar value. “Also recorded” adds a separate entry of the source. No end group written: not given here."}
{"system": "Clostridium welchii theta-toxin (pfoA)", "assay_type": "cell-based, Clostridium welchii strain 13", "settings": "not given"}
{"substance": "CAWAA [SEQ ID NO. 33 (Benzyloxycarbonyl group)]", "agonist activity or antagonist activity (pfoA expression)": "antagonist activity"}
{"substance": "CAWFT [SEQ ID NO. 37 (Benzyloxycarbonyl group), reference compound]", "IC50 (μM)": "(No activity)"}
{"substance": "CLAFT [SEQ ID NO. 39 (Benzyloxycarbonyl group), reference compound]", "IC50 (μM)": "(No activity)", "agonist activity or antagonist activity (pfoA expression)": "neither the agonist activity nor antagonist activity"}
{"substance": "CLWFS [SEQ ID NO. 21 (Benzyloxycarbonyl group)]", "agonist activity or antagonist activity (pfoA expression)": "antagonist"}
{"substance": "AgrDcb-lactam: Peptide of Formula (2), CFWAH lactam obtained by ammonia conversion of AgrDcb-thiolactone (lactam (positions not given here); also: lactam from ammonia conversion of thiolactone, places not given here)", "expression of the gene encoding theta-toxin (pfoA) (FIG. 9)": "inhibited"}
{"substance": "CLWAT [SEQ ID NO. 31 (Benzyloxycarbonyl group)]", "agonist activity or antagonist activity (pfoA expression)": "antagonist activity"}
{"substance": "CLFWS [SEQ ID NO. 42 (Benzyloxycarbonyl group), reference compound]", "IC50 (μM)": "(No activity)"}
{"substance": "CLWFA [SEQ ID NO. 38 (Benzyloxycarbonyl group), reference compound]", "IC50 (μM)": "(Agonist)", "agonist activity or antagonist activity (pfoA expression)": "agonist activity"}
{"substance": "CLWFT [SEQ ID NO. 40 (Benzyloxycarbonyl group), reference compound]", "IC50 (μM)": "(Agonist)", "agonist activity or antagonist activity (pfoA expression)": "agonist activity"}
{"substance": "CLWYT [SEQ ID NO. 41 (Benzyloxycarbonyl group), reference compound]", "IC50 (μM)": "(Agonist)"}
{"substance": "CLFWT [SEQ ID NO. 22 (Benzyloxycarbonyl group)]", "agonist activity or antagonist activity (pfoA expression)": "antagonist activity"}
{"substance": "Cys-Phe-Trp-Ala-His [cyclic CFWAH]", "expression of the gene encoding theta-toxin (pfoA) (FIG. 9)": "inhibited"}
{"system": "Clostridium welchii theta-toxin (pfoA)", "assay_type": "cell-based, Clostridium welchii strain 13", "settings": "read-out: IC50"}
{"substance": "CAWFA [SEQ ID NO. 20 (Hydrogen atom)]", "pIC50": 6.52}
{"substance": "CLWAS [SEQ ID NO. 35 (Benzyloxycarbonyl group)]", "pIC50": 6.00}
{"substance": "CLFWT [SEQ ID NO. 22 (Hydrogen atom)]", "pIC50": 6.30}
{"system": "Clostridium welchii theta-toxin (pfoA)", "assay_type": "cell-based, Clostridium welchii strain 13", "settings": "read-out: IC50 of the inhibitory activity on the toxin production (pfoA expression amount as indicator)"}
{"substance": "AgrDcb-lactam: Peptide of Formula (2), CFWAH lactam obtained by ammonia conversion of AgrDcb-thiolactone (lactam (positions not given here); also: lactam from ammonia conversion of thiolactone, places not given here)", "pIC50": 5.00}
{"substance": "Cys-Phe-Trp-Ala-His [cyclic CFWAH]", "pIC50": 5.00}
{"system": "theta-toxin (pfoA) gene", "assay_type": "cell-based, Clostridium welchii strain 13", "settings": "not given"}
{"substance": "ACFWAH [peptide 6n]", "activity of inhibiting toxin expression (theta-toxin pfoA, Northern blot, FIG. 5)": "activity of inhibiting toxin expression was shown; also recorded: inhibitory activity"}
{"substance": "Cys-Phe-Trp-Ala-His [cyclic CFWAH]", "activity of inhibiting toxin expression (theta-toxin pfoA, Northern blot, FIG. 5)": "particularly high activity; also recorded: inhibitory activity"}
